From paper PMC9743094, “Synthesis and Evaluation of Polymyxins Bearing Reductively Labile Disulfide-Linked Lipids” (Journal of Medicinal Chemistry, 2022)

How the values were obtained:
[1] = system: K. pneumoniae (ATCC 13883); type: cell-based; conditions: broth microdilution, CLSI, CAMHB, 10^6 CFU/mL, 37 °C, visual growth; triplicate experiments
How it was run: (§1)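 Broth microdilution per CLSI in cation-adjusted Mueller–Hinton Broth (12.5 μg/mL Mg^2+, 20 μg/mL Ca^2+), inoculum 10^6 CFU/mL final, 37 °C. MIC taken as lowest concentration with no visible growth, consistent across at least duplicate experiments.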

[2] = system: A. baumannii (ATCC 19606); type: cell-based; conditions: broth microdilution, CLSI, CAMHB, 10^6 CFU/mL, 37 °C, visual growth; triplicate experiments
How it was run: as §1

[3] = system: P. aeruginosa (ATCC 27853); type: cell-based; conditions: broth microdilution, CLSI, CAMHB, 10^6 CFU/mL, 37 °C, visual growth; triplicate experiments
How it was run: as §1

E. coli (ATCC 25922) = type: cell-based; conditions: broth microdilution, CLSI, CAMHB, 10^6 CFU/mL, 37 °C, visual growth; triplicate experiments
How it was run: as §1

A. baumannii RUH-134 = type: cell-based; conditions: resistance indicator: Multiple; broth microdilution, CAMHB
Description: (§2) Minimum inhibitory concentrations (MICs) on relevant Gram-negative bacteria were determined by broth microdilution, in accordance with CLSI guidelines. Indicated bacteria were taken from glycerol stocks and incubated overnight on blood agar at 37 °C. Well-isolated colonies were taken, suspended in TSB (5 mL), and grown to an OD600 of 0.5. Compounds to be tested were dissolved in DMSO (6.4 mg/mL), diluted in cation-adjusted Mueller–Hinton Broth (CAMHB) (12.5 and 20 μg/mL Mg^2+ and Ca^2+, respectively), and diluted serially on polypropylene microtiter plates. To the diluted compounds (50 μL per well) was added 50 μL of relevant bacterial suspension, to yield a final concentration of 10^6 CFU/mL. Plates were covered by adhesive gas-permeable membranes and incubated at 37 °C. MIC was read out as the lowest concentration that inhibited visual bacterial growth. Shown values are consistent results from at least duplicate experiments.
(§3) Bacterial strains used for MIC assays and extended MIC assessment
(§4) Strains: The following strains were obtained from BEI Resources, NIAID, NIH: E. Coli M0072, strain
(§5) Table S2. […] Values are given in μg/mL.
(§6) Species Strain ID Resistance Polymyxin B 18b 23a 24a

P. aeruginosa 2018-007 = type: cell-based; conditions: resistance indicator: IMP-7; broth microdilution, CAMHB
Description: as §2, §3, §4, §5, §6

K. pneumoniae KP1.53 = type: cell-based; conditions: resistance indicator: MDR; broth microdilution, CAMHB
Description: as §2, §3, §4, §5, §6

E. coli M0072 = type: cell-based; conditions: resistance indicator: Multiple; broth microdilution, CAMHB
Description: as §2, §3, §4, §5, §6

A. baumannii NRZ-00687 = type: cell-based; conditions: resistance indicator: NDM-2; broth microdilution, CAMHB
Description: as §2, §3, §4, §5, §6

P. aeruginosa 2251 = type: cell-based; conditions: resistance indicator: VIM-2; broth microdilution, CAMHB
Description: as §2, §3, §4, §5, §6

A. baumannii BAA-747 = type: cell-based; conditions: broth microdilution, CAMHB
Description: as §2, §3, §4, §5, §6

E. coli 1793 = type: cell-based; conditions: resistance indicator: NDM-1; broth microdilution, CAMHB
Description: as §2, §3, §4, §5, §6

K. pneumoniae RC0045 = type: cell-based; conditions: resistance indicator: OXA-48; broth microdilution, CAMHB
Description: as §2, §3, §4, §5, §6

P. aeruginosa M120 = type: cell-based; conditions: resistance indicator: OXA-50, blaPAO; broth microdilution, CAMHB
Description: as §2, §3, §4, §5, §6

K. pneumoniae ATCC 29665 = type: cell-based; conditions: broth microdilution, CAMHB
Description: as §2, §3, §4, §5, §6

E. coli JS136 = type: cell-based; conditions: resistance indicator: OXA-48; broth microdilution, CAMHB
Description: as §2, §3, §4, §5, §6

P. aeruginosa ATCC 10145 = type: cell-based; conditions: broth microdilution, CAMHB
Description: as §2, §3, §4, §5, §6

[4] = system: differentiated conditionally immortalized PTECs (ciPTECs, OAT-1); experiment: ciPTEC toxicity assay (PrestoBlue); type: cell-based, human; conditions: 37 °C
How it was run: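 ciPTEC (OAT-1) cells were differentiated 24 h at 33 °C then 6 days at 37 °C before 24 h exposure at 37 °C to serially diluted compounds in serum-free medium. Viability by 10% PrestoBlue fluorescence (530/590 nm), relative to untreated cells. TC50 from nonlinear regression with bottom fixed at 0; triplicates.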

P. aeruginosa (PAO1) = type: cell-based; conditions: broth microdilution, CAMHB
Description: as §2
(§7) Table S3. MIC values [µg/mL] and relative toxicity values for disulfide containing polymyxin derivative 18b and
(§8) non-disulfide containing analogue 45. […]

A. baumanii (ATCC 17961) = type: cell-based; conditions: broth microdilution, CAMHB
Description: as §2, §7, §8

[5] = system: Red blood cells from defibrinated sheep blood; experiment: Hemolysis assay; type: cell-based; conditions: 128 μg/mL, 1 h, 37 °C, absorbance 415 nm, normalized to 0.1% Triton-X100, triplicates
Description: Red blood cells from defibrinated sheep blood (Thermo Fisher Scientific) were centrifuged (400g for 15 min at 4 °C) and washed with PBS containing 0.002% Tween20 four times. The red blood cells were normalized to obtain an absorbance value between 2.5 and 3.0 at 415 nm to stay in the linear range of the assay with maximum sensitivity. A serial dilution of the compounds (128–4 μg/mL, 75 μL) was prepared in a 96-well plate. Each plate contained a positive control (0.1% Triton-X final concentration, 75 μL) and a negative control (buffer, 75 μL). The normalized blood cells (75 μL) were added, and the plates were incubated at 37 °C for 1 h while shaking at 500 rpm. After incubation, the plates were centrifuged (800g for 5 min at RT) and 25 μL of the supernatant was transferred to a second plate, containing 100 μL of PBS in each well. Absorbance was read-out at 415 nm. Values were corrected for background (negative control) and transformed to a percentage relative to the positive control. Results shown (Supporting Information Figure S2) are based on triplicate data.
Stability assessment in presence of glutathione
Figure S1. Compound stability upon incubation with low (5 μM) or high (5 mM) glutathione (GSH) concentration.
Compounds were incubated in PBS with the indicated concentration glutathione for 24 hours. Indicated data points are
based upon integration of HPLC UV data.
Figure S2. […]

MIC K. pneumoniae (ATCC 13883) [1]: 0.25 µg/mL
MIC A. baumannii (ATCC 19606) [2]: 0.25 µg/mL
MIC P. aeruginosa (ATCC 27853) [3]: 1 µg/mL
MIC E. coli (ATCC 25922) (E. coli (ATCC 25922)): 1 µg/mL
MIC A. baumannii RUH-134 (A. baumannii RUH-134): 0.25 µg/mL
MIC P. aeruginosa 2018-007 (P. aeruginosa 2018-007): 2 µg/mL
MIC K. pneumoniae KP1.53 (K. pneumoniae KP1.53): 0.5 µg/mL
MIC E. coli M0072 (E. coli M0072): 0.125 µg/mL
MIC A. baumannii NRZ-00687 (A. baumannii NRZ-00687): 0.25 µg/mL
MIC P. aeruginosa 2251 (P. aeruginosa 2251): 1 µg/mL
MIC A. baumannii BAA-747 (A. baumannii BAA-747): 0.25 µg/mL
MIC E. coli 1793 (E. coli 1793): 0.063 µg/mL
MIC K. pneumoniae RC0045 (K. pneumoniae RC0045): 0.25 µg/mL
MIC P. aeruginosa M120 (P. aeruginosa M120): 1 µg/mL
MIC K. pneumoniae ATCC 29665 (K. pneumoniae ATCC 29665): 0.25 µg/mL
MIC E. coli JS136 (E. coli JS136): 0.125 µg/mL
MIC P. aeruginosa ATCC 10145 (P. aeruginosa ATCC 10145): 1 µg/mL
MIC P. aeruginosa (PAO1) (P. aeruginosa (PAO1)): 0.5 µg/mL
MIC A. baumanii (ATCC 17961) (A. baumanii (ATCC 17961)): 0.25 µg/mL
Substance: Polymyxin B [reference compound]
ciPTEC Toxicity Index (relative to polymyxin B) ([4]; TC50 expressed relative to polymyxin B, 24 h incubation, serum-free medium, PrestoBlue fluorescence, nonlinear regression, triplicate): 1.0
TC50, Day 1 ([4]; cell batch/analysis Day 1, ciPTEC, 24 h, PrestoBlue, non-linear regression with bottom constraint at 0, triplicates): 80 µM
TC50, Day 2 ([4]; cell batch/analysis Day 2, ciPTEC, 24 h, PrestoBlue, non-linear regression with bottom constraint at 0, triplicates): 41 µM
percent hemolysis [5]: below 5%
